Each substance was assayed on probiotic bacteria preblend (Lactobacillus rhamnosus GG1 and Bifidobacterium lactis BB12). Details: iron fortifying agent combined with probiotic bacteria.
Format: cell-based
Description: For practical reasons (accuracy in weighed amount), the amounts have been multiplied by 5.
Five preparations containing various iron fortifying agents and probiotic bacteria, and a control composition containing pro biotic bacteria and no iron fortifying agent were tested, as follows:
For each preparation, the required amount of iron fortificant was weighed. The iron fortificant was mixed with the specified amount of diluent TS+, i.e., a reconstitution solution with Tryptone, Sodium Chloride and Antifoam at 37° C. having the following composition:
The mixture was agitated until complete homogenization of the solution (3 min).
The probiotic bacteria preblend (PP036) was added and the mixture agitated for 1 min.
Each of the six preparations were analysed in triplicate.
Bacterial viability was determined immediately after preparation by plating of serial dilutions and subsequent counting of colony forming units. […] The principle of the method is the following: • Samples containing probiotics are weighed, rehydrated in a diluent (TS+) and homogenized by stomaching. • Serial decimal dilutions are performed in the same diluent (TS+) • 1 mL of each appropriate dilution is transferred to Petri dishes and mixed with a specific agar (pour-plate method) • The inoculated solidified agar plates are incubated under specific conditions enabling colony formation by the target bacteria (selective enumeration) • Colonies are counted and results are calculated and expressed in colony forming units per gram of sample (CFU/g).
In the case of ferric ammonium citrate, the “Effect on viability of probiotic bacteria (in words)” value (shortened to “Effect on viability”) is reported as “caused a significant loss of bacteria viability”.
With ferric pyrophosphate the “Effect on viability” value was “does not decrease bacterial viability”.
ferrous bisglycinate was tested, and the “Effect on viability” value was “caused a significant loss of bacteria viability”.
With ferrous sulfate the “Effect on viability” value was “caused a significant loss of bacteria viability”.
